In US20220008499A1, “COMPOUNDS, COMPOSITIONS AND METHODS FOR TREATING SEPSIS” (FERRING B.V., priority 2018, published 2022):
Bridge positions count the residues as written; N and C are the ends. Square brackets hold non-standard residues; d marks the D form. Peptide text beside a SMILES is read from it. Orn(iPr) = CC(C)NCCC[C@H](N)C(=O)O; Aad = N[C@@H](CCCC(=O)O)C(=O)O

Assays:
[1] = system: patients with vasopressor-dependent sepsis and septic shock; experiment: randomized, placebo-controlled, adaptive clinical study of selepressin plus standard care; assay type: in vivo, human; design: Estimated 30-day mortality (up to day 30) / Estimated 30-day mortality, treatment difference vs placebo: concentration or dose not given beside the values; conditions: for improvement in estimated VFDs compared with placebo (more): up to day 30; for Est P&VFDs: all patients / Estimated Pressor and Ventilator Free days (P&VFDs): all patients: all doses pooled; for Est % mortality, treatment difference vs placebo / Est P&VFDs: all patients, treatment difference vs placebo / Est P&VFDs: survivors, treatment difference vs placebo / Estimated P&VFDs: all patients, treatment difference vs placebo / Estimated 30-day mortality, treatment difference vs placebo / Estimated P&VFDs: survivors only, treatment difference vs placebo: selepressin minus placebo; for Estimated Pressor and Ventilator Free days (P&VFDs): all patients: up to Day 30
From the text: The study described in the following examples was a randomized, placebo-controlled, seamless two-part, adaptive clinical study. […] The term “vasopressor-dependent sepsis” includes all patients with sepsis requiring vasopressor therapy. Septic shock includes patients with sepsis who require vasopressor therapy and who have a serum lactate concentration of ≥2 mmol/L.
The inclusion and exclusion criteria for the trial are set out below.
Inclusion Criteria • 18 years of age or older • Proven or suspected infection Septic shock defined as hypotension (systolic blood pressure less than 90 mm Hg or • Mean arterial pressure less than 65 mm Hg requiring vasopressor treatment (i.e., any dose of norepinephrine/noradrenaline base greater than […]) despite adequate fluid resuscitation (at least 1 litre for hypotension) • Informed consent obtained in accordance with local regulations
Exclusion Criteria • Unable to initiate treatment with selepressin or placebo within 12 h of onset of vasopressor treatment for septic shock • Primary cause of hypotension not due to sepsis • Previous severe sepsis with intensive care admission within this hospital stay • Known/suspected acute mesenteric ischemia • Suspicion of concomitant acute coronary syndrome based on clinical symptoms and/or electrocardiogram findings during this episode of septic shock • Chronic mechanical ventilation for any reason or severe chronic obstructive pulmonary disease (COPD) requiring either continuous daily oxygen use during the preceding 30 days or mechanical ventilation (for acute exacerbation of COPD) during the preceding 30 days • Received bone marrow transplant during the preceding 6 months or chemotherapy during the preceding 30 days for lymphoma or leukemia • Known to be pregnant Decision to limit full care taken before obtaining informed consent • Use of vasopressin in the past 12 hours before start of selepressin or placebo or use of terlipressin within 7 days of start of selepressin or placebo • Prior enrollment in the study • Prior use of an investigational medicinal product within the last month or planned or concurrent participation in a clinical trial for any investigational drug or investigational device
Additional Criteria that Must be Met at the Time of the Start of the Infusion of Selepressin or Placebo • Received a minimum of 30 ml/kg fluid in total from the onset of hypotension (not required if there is evidence of adequate fluid repletion or overload) • Received a continuous infusion of norepinephrine/noradrenaline base greater than […] for at least 1 h and is still receiving at least […] norepinephrine/noradrenaline base • Less than 12 h since onset of vasopressor treatment for septic shock
The targeted study population is a typical sample of patients presenting with vasopressor-dependent sepsis, defined by failing to respond to intravenous fluid replacement and requiring vasopressors for at least 1 hour, in whom treatment with selepressin or placebo could be initiated within 12 hours of the initiation of vasopressors.
The study drug was the continuous intravenous infusion of either the experimental agent or a matching placebo. In all instances, subjects received study infusion and standard care. The possible treatment arms were: Placebo; selepressin starting infusion rate 1.7 ng/kg/min to maximum 2.5 ng/kg/min; selepressin starting 2.5 ng/kg/min to maximum 3.75 ng/kg/min; selepressin starting 3.5 ng/kg/min to maximum 5.25 ng/kg/min; and selepressin starting 5.0 ng/kg/min to 7.5 ng/kg/min. […] This latter approach sought to wean all other vasoactive agents as soon as possible, and in a specified order, beginning with any open-label vasopressor other than norepinephrine, followed by norepinephrine, and finally the blinded study infusion. All patients received the study infusion until recovery from the need of vasopressor treatment or for 30 days, whichever came first. […]

[2] = biological target: human vasopressin V1a receptor (Homo sapiens, UniProt P37288); conditions: relative to the V1b, V2, and oxytocin receptors; cited from earlier work
Sequence of human vasopressin V1a receptor (P37288 whole entry): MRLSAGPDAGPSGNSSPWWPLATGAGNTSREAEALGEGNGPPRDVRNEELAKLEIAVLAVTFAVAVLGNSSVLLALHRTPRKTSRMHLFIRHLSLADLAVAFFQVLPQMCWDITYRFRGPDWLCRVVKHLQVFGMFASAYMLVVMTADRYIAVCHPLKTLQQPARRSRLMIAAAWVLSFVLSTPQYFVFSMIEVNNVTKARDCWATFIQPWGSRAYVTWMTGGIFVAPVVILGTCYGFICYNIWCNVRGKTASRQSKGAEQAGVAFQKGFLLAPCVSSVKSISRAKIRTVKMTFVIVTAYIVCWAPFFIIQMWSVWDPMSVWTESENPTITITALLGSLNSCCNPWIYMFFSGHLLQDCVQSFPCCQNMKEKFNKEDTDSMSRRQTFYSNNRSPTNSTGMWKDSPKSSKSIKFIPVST

[3] = system: other receptors, ion channels, or transporters; conditions: cited from earlier work
[4] = system: patients with septic shock; conditions: cited from earlier work
[5] = baseline serum lactate <2 mmol/L, n = 184
[6] = baseline serum lactate <2 mmol/L
[7] = baseline serum lactate ≥2 mmol/L, n = 340
[8] = baseline serum lactate ≥2 mmol/L

With `CC[C@H](C)[C@@H]1NC(=O)[C@H](Cc2ccccc2)NC(=O)[C@@H](N)CSSC[C@@H](C(=O)N2CCC[C@H]2C(=O)N[C@@H](CCCNC(C)C)C(=O)NCC(N)=O)NC(=O)[C@H](CC(N)=O)NC(=O)[C@H](CCCC(N)=O)NC1=O` [Selepressin, selepressin] (H-CFI[Aad](NH2)NCP[Orn(iPr)]G-NH2; disulfide 1-6) the “mortality and patient outcomes (pressor and mechanical ventilator free days)” value ([1]; PaO2/FiO2 greater than about 200 prior to treatment) was “improved mortality and improved patient outcomes”, the “mortality and patient outcomes (P&VFDs)” value ([1]; administered within six hours from when the patient requires vasopressor therapy) was “improved mortality and improved patient outcomes” and the “improvement in estimated VFDs compared with placebo (more)” value ([1]; baseline PaO2/FiO2 200-300 mmHg, FIG. 1) was 2.1. The “outcomes (VFDs) compared with placebo” value ([1]; baseline PaO2/FiO2 <100 mmHg, FIG. 1) was “slightly worse”, the “improvement in estimated VFDs compared with placebo (more)” value ([1]; baseline PaO2/FiO2 ≥300 mmHg, FIG. 1) was 4.8 and the Est % mortality [1, 5] was 21.39%. The “Est P&VFDs: all patients” value [1, 5] was 17.53, the “Est % mortality, treatment difference vs placebo” value [1, 6] was −6.32% and the “Est P&VFDs: all patients, treatment difference vs placebo” value [1, 6] was 2.34. The “Est P&VFDs: survivors” value [1, 6] was 22.30, the “Est P&VFDs: survivors, treatment difference vs placebo” value [1, 6] was 1.29 and the Est % mortality [1, 7] was 40.04%. For the same compound, the “Est P&VFDs: all patients” value [1, 7] was 13.87, the “Est % mortality, treatment difference vs placebo” value [1, 8] was 3.96% and the “Est P&VFDs: all patients, treatment difference vs placebo” value [1, 8] was −0.67. The “Est P&VFDs: survivors” value [1, 8] was 23.14, the “Est P&VFDs: survivors, treatment difference vs placebo” value [1, 8] was 0.38 and the “improvement in mortality compared with placebo (less)” value ([1]; serum lactate <2 mmol/L at baseline) was 6.32%. The “mortality and patient outcomes (P&VFDs)” value ([1]; serum lactate less than about 2 mmol/L prior to treatment) was “improved mortality and improved patient outcomes”, the “Estimated Pressor and Ventilator Free days (P&VFDs): all patients” value ([1]; treatment <6 hours from when patient required vasopressor, n = 147) was 14.56 days and the “Estimated P&VFDs: all patients, treatment difference vs placebo” value ([1]; treatment <6 hours from when patient required vasopressor) was 2.08 days. The “Estimated 30-day mortality (up to day 30)” value ([1]; treatment <6 hours, n = 147) was 35.73%, the “Estimated 30-day mortality, treatment difference vs placebo” value ([1]; treatment <6 hours) was −6.57% and the “Estimated Pressor and Ventilated Free Days (P&VFDs): survivors only” value ([1]; treatment <6 hours) was 22.66 days. The “Estimated P&VFDs: survivors only, treatment difference vs placebo” value ([1]; treatment <6 hours) was 1.02 days, the “improvement in mortality compared with placebo (less)” value ([1]; treatment between zero and up to six hours from when patient required vasopressor) was 6.57% and the “Estimated 30-day mortality (up to day 30)” value ([1]; treatment ≥6 hours, n = 415) was 33.79%. For the same compound, the “Estimated Pressor and Ventilator Free days (P&VFDs): all patients” value ([1]; treatment ≥6 hours, n = 415) was 15.59 days, the “Estimated 30-day mortality, treatment difference vs placebo” value ([1]; treatment ≥6 hours) was 2.91% and the “Estimated P&VFDs: all patients, treatment difference vs placebo” value ([1]; treatment ≥6 hours) was -0.05 days. For the same compound, the “Estimated Pressor and Ventilated Free Days (P&VFDs): survivors only” value ([1]; treatment ≥6 hours) was 23.55 days, the “Estimated P&VFDs: survivors only, treatment difference vs placebo” value ([1]; treatment ≥6 hours) was 0.92 days and the “affinity and selectivity for V1a receptor” value [2] was “high affinity and selectivity”. The “affinity for other receptors, ion channels, or transporters” value [3] was “no known affinity”.

In the case of `NC(=O)CC[C@@H]1NC(=O)[C@H](Cc2ccccc2)NC(=O)[C@H](Cc2ccc(O)cc2)NC(=O)[C@@H](N)CSSC[C@@H](C(=O)N2CCC[C@H]2C(=O)N[C@@H](CCCN=C(N)N)C(=O)NCC(N)=O)NC(=O)[C@H](CC(N)=O)NC1=O` [vasopressin], the “overall mortality compared with norepinephrine” value ([4]; all patients) is given as “not different” and the “mortality compared with norepinephrine” value ([4]; patients requiring 5-14 ug/min of norepinephrine at enrollment) is given as “decreased mortality”.
